These results are taken from patent US20060246026A1, “Barrier formulation comprising a silicone based emulsion” (priority 2003, published 2006).

This assay relates to bacterial counts on the fingertips. The assay can be described thus: prEN 12791 in vivo anti-microbial activity on fingertips of volunteers. Also noted: species or system human. Particulars: after 3 minutes (immediate); 20 volunteers; 60% propanol compared with the formulation (p<0.0001). Here is the method: The anti-microbial efficacy of the formulation of Example 5 was assessed in the clinical setting. The acceptability of the formulation of Example 5 by health care workers (HCW) was investigated. In vitro and in vivo assessment of the formulation was undertaken in accordance with European standards currently used for assessing hygienic and surgical rubs and washes (prEN 12054 and prEN 12791).
prEN 12054 and prEN 12791 (European Standards for Assessing Hygienic and Surgical Hand Rubs and Washes) • In vitro antibacterial efficacy of the formulation was assessed for anti-microbial activity against Staphylococcus aureus ATCC 6538, Enterococcus hirae ATCC 10541, Pseudomonas aeruginosa ATCC 15442 and Escherichia coli NCTC 10536 in accordance with prEN 12054. In vivo anti-microbial activity of the formulation was compared with 60% (v/v) […] (gold standard) in accordance with […]. Twenty laboratory volunteers participated in the assessment of the formulation in accordance to prEN 12791.

On to `CCCO` [60% propanol, propanol], for which the “Mean reduction factor in the bacterial counts on the fingertips, immediate” value is on record as “significantly higher mean reduction factor”.
